Tests used:
[1] = tested on: CGS 21680-induced catalepsy; assay: Activity on CGS 21680-induced catalepsy; assay type: in vivo, mouse; conditions: 10 mg/kg oral; for Total score: total catalepsy score of 10 mice (maximum 50 points), 1 hour after administration; for inhibition in vivo at 10 mg/kg: Mus musculus, 1 h, percentage reduction of total score vs control group, read-out: Remission ratio (%)
Experimental: This test was carried out using 10 animals per group of male ddY mice of 5 week age (22 to 25 g in body weight, Japan SLC). […] One hour after the administration of the test compound, only forelimbs or only hindlimbs of each animal were laid on a vertically arranged stand made of acryl, having a size of 4.5 cm in height and 1.0 cm in width, to measure catalepsy symptoms. All of the test compounds were administered orally in a dose of 10 mg/kg.
(§1) The effect was judged by total catalepsy scores of 10 animals in one group (the maximum score is 50 points). When total score was 40 points or less, the activity of the compounds was judged positive. The number of animals showing remission of catalepsy was expressed by the number of cases in which the catalepsy score was 4 points or less in 10 cases. The catalepsy remission ratio was expressed as the percentage reduction of the total score in the test compound-administered group to the total score in the control group.

[2] = tested on: reserpine-induced catalepsy; assay: Activity on reserpine-induced catalepsy; assay type: in vivo, mouse; conditions: oral; for Total score: total catalepsy score of 10 mice (maximum 50 points), reserpine 5 mg/kg s.c., 1 hour after administration; for Remission ratio (%): percentage reduction of total score vs control group
Experimental: This test was carried out using 10 animals per group of male ddY mice of 5 week age (22 to 24 g in body weight, Japan SLC). […] Reserpine (5 mg/kg: apoplon, Daiichi Pharmaceutical Co., Ltd.; diluted with distilled water) was subcutaneously administered, and catalepsy-inducing activity was observed from 18 hours after the administration. […] Each test compound was suspended in distilled water for injection containing 0.5% MC (manufactured by Otsuka Pharmaceutical Co., Ltd.) The suspension containing each of the test compounds or a solution containing no test compound (distilled water for injection containing 0.5% MC (manufactured by Otsuka Pharmaceutical Co., Ltd.); control) was orally administered (0.1 mL per 10 g mouse body weight) and, one hour after the administration of test compound, only forelimbs or only hindlimbs of each animal were laid on a stand having a size of 4.5 cm in height and 1.0 cm in width, to measure catalepsy symptoms.
as §1, with “maximum” for “maximum score”, “When the” for “When”, “test compound” for “compounds”

Rat A2A receptor = molecular target: T1, Rat A2A receptor (Rattus norvegicus, UniProt P30543); assay: Adenosine A2A receptor binding test (3H-CGS 21680 binding); conditions: 10^−6 mol/L test compound, rat corpus striatum
T1 construct: from tissue; host or cells: rat corpus striatum membrane preparation
Experimental: The final precipitate was suspended in 50 mmol/L Tris-HCl buffer (containing 10 mmol/L magnesium chloride and 0.02 unit/mg tissue of adenosine deaminase (manufactured by Sigma Co.)) by adding the buffer to the final precipitate so as to give a tissue concentration of 5 mg (wet weight)/mL.
Inhibition ratio (%)={1−(amount of the binding in the presence of the test compound−amount of the non-specific binding)/(amount of the total binding−amount of the non-specific binding)}×100

T1 sequence (P30543 whole entry): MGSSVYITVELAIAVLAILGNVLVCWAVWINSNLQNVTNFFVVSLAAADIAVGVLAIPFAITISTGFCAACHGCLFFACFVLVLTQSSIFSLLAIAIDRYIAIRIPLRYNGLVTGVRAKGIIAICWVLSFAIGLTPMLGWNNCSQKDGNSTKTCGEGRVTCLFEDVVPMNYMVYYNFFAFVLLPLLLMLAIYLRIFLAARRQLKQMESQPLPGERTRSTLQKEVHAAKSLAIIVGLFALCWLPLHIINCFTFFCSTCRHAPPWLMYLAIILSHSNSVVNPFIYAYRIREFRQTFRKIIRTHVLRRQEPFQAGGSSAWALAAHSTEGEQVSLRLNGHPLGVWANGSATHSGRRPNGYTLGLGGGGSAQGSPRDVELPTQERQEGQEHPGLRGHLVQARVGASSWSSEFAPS

Rat A2A receptor inhibition ratio (%) (Rat A2A receptor)	melting point [°C]	SMILES	Total score [1]	Total score [2]	inhibition in vivo at 10 mg/kg [1] [%]	Remission ratio (%) [2] [%]
84	212	CCC(C)(O)CN1CCN(c2cc3nc(-c4ccco4)nn3c(N)n2)CC1 (centres unmarked) [Compound 2, 5-Amino-2-(2-furyl)-7-(4-(2-hydroxy-2-methylbutyl)piperazinyl)[1,2,4]triazolo[1,5-c]pyrimidine]	–	–	–	–
89	123 to 124	CC(O)(CCN1CCN(c2cc3nc(-c4ccco4)nn3c(N)n2)CC1)c1ccccc1 (centres unmarked) [Compound 9, 5-Amino-2-(2-furyl)-7-(4-(3-hydroxy-3-phenylbutyl)piperazinyl)[1,2,4]triazolo[1,5-c]pyrimidine]	–	–	–	–
96	–	Nc1nc(N2CCN(Cc3ccc4c(c3)NC(=O)CO4)CC2)cc2nc(-c3ccco3)nn12 [Compound 27, 5-Amino-2-(2-furyl)-7-(4-(3-oxo-3,4-dihydro-2H-benzo[1,4]oxazin-6-ylmethyl)piperazinyl)[1,2,4]triazolo[1,5-c]pyrimidine]	4	–	92	–
96	–	Cc1nocc1CN1CCN(c2cc3nc(-c4ccco4)nn3c(N)n2)CC1 [Compound 24, 5-Amino-2-(2-furyl)-7-(4-(3-methylisoxazol-4-ylmethyl)piperazinyl)[1,2,4]triazolo[1,5-c]pyrimidine]	2	14	96	72
92	220 to 221	Nc1nc(N2CCN(Cc3cn4ccccc4n3)CC2)cc2nc(-c3ccco3)nn12 [Compound 15, 5-Amino-2-(2-furyl)-7-(4-(imidazo[1,2-a]pyridin-2-ylmethyl)piperazinyl)[1,2,4]triazolo[1,5-c]pyrimidine]	–	–	–	–
96	284 to 286	Nc1nc(N2CCN(Cc3nc4ccccc4[nH]3)CC2)cc2nc(-c3ccco3)nn12 [Compound 18, 5-Amino-7-(4-(benzimidazol-2-ylmethyl)piperazinyl)-2-(2-furyl)[1,2,4]triazolo[1,5-c]pyrimidine]	–	–	–	–
95	244 to 246	Cc1onc(-c2ccccc2)c1CN1CCN(c2cc3nc(-c4ccco4)nn3c(N)n2)CC1 [Compound 25, 5-Amino-2-(2-furyl)-7-(4-(5-methyl-3-phenylisoxazol-4-ylmethyl)piperazinyl)[1,2,4]triazolo[1,5-c]pyrimidine]	–	–	–	–
93	267 to 268	CC(O)(CN1CCN(c2cc3nc(-c4ccco4)nn3c(N)n2)CC1)c1ccccc1 (centres unmarked) [Compound 3, 5-Amino-2-(2-furyl)-7-(4-(2-hydroxy-2-phenylpropyl)piperazinyl)[1,2,4]triazolo[1,5-c]pyrimidine]	–	–	–	–
88	194 to 195	COC(C)(C)CCN1CCN(c2cc3nc(-c4ccco4)nn3c(N)n2)CC1 [Compound 11, 5-Amino-2-(2-furyl)-7-(4-(3-methoxy-3-methylbutyl)piperazinyl)[1,2,4]triazolo[1,5-c]pyrimidine]	–	–	–	–
95	–	Nc1nc(N2CCN(Cc3nc4ccccc4s3)CC2)cc2nc(-c3ccco3)nn12 [Compound 19, 5-Amino-7-(4-(benzothiazol-2-ylmethyl)piperazinyl)-2-(2-furyl)[1,2,4]triazolo[1,5-c]pyrimidine]	5	19	90	62
90	244 to 246	Nc1nc(N2CCN(Cc3cn4cccnc4n3)CC2)cc2nc(-c3ccco3)nn12 [Compound 17, 5-Amino-2-(2-furyl)-7-(4-(imidazo[1,2-a]pyrimidin-2-ylmethyl)piperazinyl)[1,2,4]triazolo[1,5-c]pyrimidine]	–	–	–	–
88	242 to 244	Nc1nc(N2CCN(Cc3cn4ccncc4n3)CC2)cc2nc(-c3ccco3)nn12 [Compound 16, 5-Amino-2-(2-furyl)-7-(4-(imidazo[1,2-a]pyrazin-2-ylmethyl)piperazinyl)[1,2,4]triazolo[1,5-c]pyrimidine]	–	–	–	–
84	196 to 197	CCC(C)(O)CCN1CCN(c2cc3nc(-c4ccco4)nn3c(N)n2)CC1 (centres unmarked) [Compound 8, 5-Amino-2-(2-furyl)-7-(4-(3-hydroxy-3-methylpentyl)piperazinyl)[1,2,4]triazolo[1,5-c]pyrimidine]	–	–	–	–
94	287 to 288	Nc1nc(N2CCN(Cc3ccc4c(c3)OCC(=O)N4)CC2)cc2nc(-c3ccco3)nn12 [Compound 26, 5-Amino-2-(2-furyl)-7-(4-(3-oxo-3,4-dihydro-2H-benzo[1,4]oxazin-7-ylmethyl)piperazinyl)[1,2,4]triazolo[1,5-c]pyrimidine]	–	–	–	–

Second part, the compound before the results:

SMILES	Rat A2A receptor inhibition ratio (%) (Rat A2A receptor)	melting point [°C]	Total score [1]	Total score [2]	inhibition in vivo at 10 mg/kg [1] [%]	Remission ratio (%) [2] [%]
CC(C)(O)CCN1CCN(c2cc3nc(-c4ccco4)nn3c(N)n2)CC1 [Compound 7, 5-Amino-2-(2-furyl)-7-(4-(3-hydroxy-3-methylbutyl)piperazinyl)[1,2,4]triazolo[1,5-c]pyrimidine]	–	–	8	23	–	–
Nc1nc(N2CCN(CC3(O)CC3)CC2)cc2nc(-c3ccco3)nn12 [Compound 5, 5-Amino-2-(2-furyl)-7-(4-(1-hydroxycyclopropylmethyl)piperazinyl)[1,2,4]triazolo[1,5-c]pyrimidine]	–	–	5	12	90	76
Cc1cc(C(C)N2CCN(c3cc4nc(-c5ccco5)nn4c(N)n3)CC2)no1 (centres unmarked) [Compound 23, 5-Amino-2-(2-furyl)-7-(4-(1-(5-methylisoxazol-3-yl)ethyl)piperazinyl)[1,2,4]triazolo[1,5-c]pyrimidine]	75	–	–	–	–	–
Cc1cc(CN2CCN(c3cc4nc(-c5ccco5)nn4c(N)n3)CC2C)no1 (centres unmarked) [Compound 22, 5-Amino-2-(2-furyl)-7-(3-methyl-4-(5-methylisoxazol-3-ylmethyl)piperazinyl)[1,2,4]triazolo[1,5-c]pyrimidine]	84	–	1	13	98	74
COC(C)(C)CN1CCN(c2cc3nc(-c4ccco4)nn3c(N)n2)CC1 [Compound 6, 5-Amino-2-(2-furyl)-7-(4-(2-methoxy-2-methylpropyl)piperazinyl)[1,2,4]triazolo[1,5-c]pyrimidine]	–	–	8	11	84	78
CC(C)(O)CCCN1CCN(c2cc3nc(-c4ccco4)nn3c(N)n2)CC1 [Compound 13, 5-Amino-2-(2-furyl)-7-(4-(4-hydroxy-4-methylpentyl)piperazinyl)[1,2,4]triazolo[1,5-c]pyrimidine]	–	–	10	–	80	–
CCC(O)(CC)CCN1CCN(c2cc3nc(-c4ccco4)nn3c(N)n2)CC1 [Compound 10, 5-Amino-2-(2-furyl)-7-(4-(3-ethyl-3-hydroxypentyl)piperazinyl)[1,2,4]triazolo[1,5-c]pyrimidine]	87	–	11	–	78	–
Nc1nc(N2CCN(Cc3ccc4nsnc4c3)CC2)cc2nc(-c3ccco3)nn12 [Compound 20, 5-Amino-7-(4-(benzo-2,1,3-thiadiazol-5-ylmethyl)piperazinyl)-2-(2-furyl)[1,2,4]triazolo[1,5-c]pyrimidine]	–	–	5	–	90	–
CC(C)(O)CCCCN1CCN(c2cc3nc(-c4ccco4)nn3c(N)n2)CC1 [Compound 14, 5-Amino-2-(2-furyl)-7-(4-(5-hydroxy-5-methylhexyl)piperazinyl)[1,2,4]triazolo[1,5-c]pyrimidine]	–	–	9	12	82	76

Reference: patent US6545000B1, “[1,2,4]triazolo[1,5-c]pyrimidine derivatives” (Kyowa Hakko Kogyo Co., Ltd., priority 1998, dated 2003)
